We go through ten compounds from patent publication US20110044938A1 (NYCOMED GMBH, priority 2006, published 2011).

SMILES strings stand for the structures.

Assay [1] relates to subclones of RKO colon adenocarcinoma cells (RKOp27 or RKOp21) arrested by Ponasterone A. The experiment in a line: Alamar Blue cell viability assay, cell cycle specific mode of action: cells arrested by ectopic p27Kip1 induced by Ponasterone A versus proliferating cells. The note with it: Homo sapiens, RKO p27 induced (arrested) cells, 10 μM Ponasterone A, 72 hours, value = class bound given in Table A, read-out: −logIC50 RKO p27 induced (arrested) (converted). It counts as cell-based. The method, boiled down: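 RKOp27 or RKOp21 cells, 15000/well in DMEM/10% FCS, either arrested by p27Kip1 induced with 10 μM Ponasterone A or proliferating without inducer; compound added after 24 h, 72 h at 37° C. Alamar Blue fluorescence (544/590 nm), viability as % of untreated cells; −log IC50 reported.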

The subject of assay [2] is RKO (RKOp27) human colon adenocarcinoma cells. The experiment in a line: Alamar Blue cell viability assay, anti-proliferative/cytotoxic activity on proliferating RKO subclones. It counts as cell-based. The note with it: RKOp27, 72 h, RKO p27 uninduced (proliferating) cells, value = class bound given in Table A, read-out: −logIC50 RKO p27 uninduced (proliferating) (converted). The method, boiled down: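 RKOp27 subclones (5000 cells/well) were exposed 24 h after seeding to semi-log compound dilutions in DMEM with 10% FCS, in quadruplicate, for 72 h at 37 °C. Viability was read by Alamar Blue fluorescence (544/590 nm) relative to untreated cells (1% DMSO medium). IC50 came from concentration-effect curves and is reported as −log IC50 [mol/l].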

Turning to `Cn1nccc1CNC(=O)OC1CCc2c(sc(NC(=O)/C=C/c3cccnc3)c2C#N)C1` (centres unmarked) [Example 40, (2-Methyl-2H-pyrazol-3-ylmethyl)-carbamic acid 3-cyano-2-((E)-3-pyridin-3-yl-allanoylamino)-4,5,6,7-tetrahydro-benzo[b]thiophen-6-yl ester], the IC50 in assay [1] is at least 100000 nM; in assay [2], at most 501 nM.

For the compound `COc1cccc(CCC(=O)Nc2sc3c(c2C#N)CCC(COC(=O)NCc2ccccn2)C3)c1` (centres unmarked) [Example 235, Pyridin-2-ylmethyl-carbamic acid 3-cyano-2-[3-(3-methoxy-phenyl)-propanoylamino]-4,5,6,7-tetrahydro-benzo[b]thiophen-6-ylmethyl ester], the IC50 in assay [1] is at least 100000 nM; in assay [2], 501 to 2000 nM.

On to `N#Cc1c(NC(=O)/C=C/c2cccnc2)sc2c1CCC(COC(=O)N1CC(F)C1)C2` (centres unmarked) [Example 121, 3-Fluoro-azetidine-1-carboxylic acid 3-cyano-2-((E)-3-pyridin-3-yl-allanoylamino)-4,5,6,7-tetrahydro-benzo[b]thiophen-6-ylmethyl ester], for which the results for the IC50 in assay [1] and in assay [2] were at least 100000 nM and at most 501 nM, respectively.

With `N#Cc1c(NC(=O)/C=C/c2cccnc2)sc2c1CC[C@@H](COC(=O)N1CC(O)C1)C2` [Example 73b, 3-Hydroxy-azetidine-l - carboxylic acid (R)-3-cyano-2-((E)-3-pyridin-3-yl-allanoylamino)-4,5,6,7-tetrahydro-benzo[b]thiophen-6-ylmethyl ester], the IC50 was at least 100000 nM in assay [1] and 501 to 2000 nM in assay [2].

Turning to `COc1cccc(CCC(=O)Nc2sc3c(c2C#N)CCC(OC(=O)NCc2nccn2C)C3)c1` (centres unmarked) [Example 261, (1-Methyl-1H-imidazol-2-ylmethyl)-carbamic acid 3-cyano-2-[3-(3-methoxy-phenyl)-propanoylamino]-4,5,6,7-tetrahydro-benzo[b]thiophen-6-yl ester], the IC50 was at least 100000 nM in assay [1] and at most 501 nM in assay [2].

Take `CCOc1ccccc1CCC(=O)Nc1sc2c(c1C#N)CCC(COC(=O)NCc1csc(C)n1)C2` (centres unmarked) [Example 213, (2-Methyl-thiazol-4-ylmethyl)-carbamic acid 3-cyano-2-[3-(2-ethoxy-phenyl)-propanoylamino]-4,5,6,7-tetrahydro-benzo[b]thiophen-6-ylmethyl ester]: the IC50 in assay [1] was at least 100000 nM; in assay [2], at most 501 nM.

For `CCOc1ccccc1CCC(=O)Nc1sc2c(c1C#N)CCC(OC(=O)NCc1nccn1C)C2` (centres unmarked) [Example 173, (1-Methyl-1H-imidazol-2-ylmethyl)-carbamic acid 3-cyano-2-[3-(2-ethoxy-phenyl)-propanoylamino]-4,5,6,7-tetrahydro-benzo[b]thiophen-6-yl ester], the figures for the IC50 in assay [1] and in assay [2] were at least 10000 nM and at most 501 nM, respectively.

Turning to `COc1cccc(CCC(=O)Nc2sc3c(c2C#N)CCC(OC(=O)NCc2cnoc2C)C3)c1` (centres unmarked) [Example 227, (5-Methyl-isoxazol-4-ylmethyl)-carbamic acid 3-cyano-2-[3-(3-methoxy-phenyl)-propanoylamino]-4,5,6,7-tetrahydro-benzo[b]thiophen-6-yl ester], the IC50 was at least 100000 nM in assay [1] and at most 501 nM in assay [2].

With `CC(CC(=O)Nc1sc2c(c1C#N)CCC(OC(=O)OCc1cncs1)C2)c1ccccc1` (centres unmarked) [Example 375, Carbonic acid 3-cyano-2-(3-phenyl-butanoyl-amino)-4,5,6,7-tetrahydro-benzo[b] thiophen-6-yl ester thiazol-5-ylmethyl ester], the IC50 was at least 10000 nM in assay [1] and at most 501 nM in assay [2].

Regarding `CC(CC(=O)Nc1sc2c(c1C#N)CCC(OC(=O)N1CCOCC1)C2)c1ccccc1` (centres unmarked) [Example 366, Morpholine-4-carboxylic acid 3-cyano-2-(3-phenyl-butanoyl-amino)-4,5,6,7-tetrahydro-benzo[b] thiophen-6-yl ester], the results for the IC50 in assay [1] and in assay [2] were at least 50100 nM and at most 501 nM, respectively.
